{"source": "paper PMC10112131", "about": "“Pharmacological Elevation of Cellular Dihydrosphingomyelin Provides a Novel Antiviral Strategy against West Nile Virus Infection” (Antimicrobial Agents and Chemotherapy, 2023)", "key": {"West Nile virus (WNV) [1]": {"tested_on": "West Nile virus (WNV)", "settings": "Vero cells; for WNV infection: Fig 7"}, "in vitro [2]": {"test": "in vitro", "settings": "African green monkey"}, "West Nile virus (WNV) [3]": {"tested_on": "West Nile virus (WNV)", "test": "microbe, parasite or virus in culture", "settings": "Vero, 24 h, read-out: EC50 WNV"}, "coxsackievirus B5 (CVB5)": {"tested_on": "coxsackievirus B5 (CVB5)", "test": "microbe, parasite or virus in culture", "type": "cell-based, CVB5 Faulkner", "settings": "for EC50: Enterovirus B, Vero, 24 h; for Antiviral efficacy against CVB5: Vero cells"}, "WNV RVPs": {"tested_on": "WNV RVPs", "test": "Entry of WNV reporter virus particles (RVPs) into Vero cells, flow cytometry", "type": "cell-based, West Nile virus", "settings": "Vero pretreated 24 h, read 48 h p.i."}, "West Nile virus (WNV) [4]": {"tested_on": "West Nile virus (WNV)", "test": "Specific infectivity of WNV progeny released from treated Vero cells", "type": "cell-based", "settings": "vs vehicle"}, "Vero cells [5]": {"tested_on": "Vero cells", "test": "Lipidomics of treated Vero cells by mass spectrometry", "type": "cell-based", "settings": "10 μM, 24 h; for Level of dihydrosphingomyelins (dhSMs): relative to control; for dhSM/SM ratio: vs vehicle, almost all dhSMs analyzed"}, "Vero cells [6]": {"tested_on": "Vero cells", "settings": "for CC50: read-out: CC50 in uninfected cells, 48-h treatment, Vero cells, ATP, 48 h"}, "West Nile virus (WNV) [7]": {"tested_on": "West Nile virus (WNV)", "settings": "SH-SY5Y cells"}, "Usutu virus (USUV) [8]": {"tested_on": "Usutu virus (USUV)", "settings": "Vero cells"}, "Zika virus (ZIKV) [9]": {"tested_on": "Zika virus (ZIKV)", "settings": "Vero cells"}, "dengue virus (DENV-2) [10]": {"tested_on": "dengue virus (DENV-2)", "settings": "Vero cells"}, "[11]": {"tested_on": "vesicular stomatitis virus (VSV)"}, "Vero cells [12]": {"tested_on": "Vero cells", "settings": "low density, 24 h"}, "in vitro [13]": {"test": "in vitro", "settings": "human"}, "West Nile virus (WNV) [14]": {"tested_on": "West Nile virus (WNV)", "test": "microbe, parasite or virus in culture", "settings": "SH-SY5Y, 24 h, read-out: EC50 WNV"}, "Usutu virus (USUV) [15]": {"tested_on": "Usutu virus (USUV)", "test": "microbe, parasite or virus in culture", "settings": "Vero, 24 h, read-out: EC50 USUV"}, "Zika virus (ZIKV) [16]": {"tested_on": "Zika virus (ZIKV)", "test": "microbe, parasite or virus in culture", "settings": "Vero, 24 h, read-out: EC50 ZIKV"}, "dengue virus (DENV-2) [17]": {"tested_on": "dengue virus (DENV-2)", "test": "microbe, parasite or virus in culture", "settings": "DENV2, Vero, 48 h, read-out: EC50 DENV-2"}, "[18]": {"tested_on": "vesicular stomatitis virus (VSV)", "test": "microbe, parasite or virus in culture", "settings": "Vero, 24 h, read-out: EC50 VSV"}, "[19]": {"target": "T1, ceramide desaturase (Des1) (Homo sapiens, UniProt O15121)", "T1 sequence (O15121 1-323)": "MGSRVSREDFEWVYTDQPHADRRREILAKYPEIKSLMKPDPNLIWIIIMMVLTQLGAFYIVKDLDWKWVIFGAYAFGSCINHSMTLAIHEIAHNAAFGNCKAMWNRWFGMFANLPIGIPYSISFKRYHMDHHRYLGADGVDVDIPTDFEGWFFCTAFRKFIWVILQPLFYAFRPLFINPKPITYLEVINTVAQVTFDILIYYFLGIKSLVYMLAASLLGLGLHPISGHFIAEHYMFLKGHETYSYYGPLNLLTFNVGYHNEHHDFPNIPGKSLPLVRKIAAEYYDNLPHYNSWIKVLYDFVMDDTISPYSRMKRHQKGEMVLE"}}, "note": "Where “and” joins values, the source holds several entries; their conditions need not be identical. Identical values can stand only once. Entries after “also recorded” stand apart in the source; their conditions may differ. Like-named read-outs stand apart in the source and are kept apart here."}
{"smiles": "CCCCCCCCOC(=O)c1cc(O)c(O)c(O)c1", "note": "[AL-071]", "values": [{"measurement": "SI (CC50/EC50) WNV", "setting": "West Nile virus (WNV) [1]", "value": 6.6}, {"measurement": "CC50", "setting": "in vitro [2]", "value": 9.2, "unit": "µM"}, {"measurement": "EC50", "setting": "West Nile virus (WNV) [3]", "value": 1.4, "unit": "µM"}]}
{"smiles": "O=C(OCCCCCCCCOC(=O)c1cc(O)c(O)c(O)c1)c1cc(O)c(O)c(O)c1", "note": "[AL-072]", "values": [{"measurement": "SI (CC50/EC50) WNV", "setting": "West Nile virus (WNV) [1]", "value": 5.9}, {"measurement": "CC50", "setting": "in vitro [2]", "value": 23.2, "unit": "µM"}, {"measurement": "EC50", "setting": "West Nile virus (WNV) [3]", "value": 3.9, "unit": "µM"}]}
{"smiles": "O=C(OCCCCCCCCCCCCOC(=O)c1cc(O)c(O)c(O)c1)c1cc(O)c(O)c(O)c1", "note": "[AL-085]", "values": [{"measurement": "SI (CC50/EC50) WNV", "setting": "West Nile virus (WNV) [1]", "value": 25.0}, {"measurement": "CC50", "setting": "in vitro [2]", "value": 5, "unit": "µM"}, {"measurement": "EC50", "setting": "West Nile virus (WNV) [3]", "value": 0.2, "unit": "µM"}]}
{"smiles": "O=C(NCCCCCCCCCCCCNC(=O)c1cc(O)c(O)c(O)c1)c1cc(O)c(O)c(O)c1", "note": "[AL-088, N,N′-(dodecane-1,12-diyl)bis(3,4,5-trihydroxybenzamide)]", "values": [{"measurement": "Mean virus yield CVB5", "setting": "coxsackievirus B5 (CVB5)", "value": "8.58E+07 PFU/mL and 7.12E+07 PFU/mL and 6.85E+07 PFU/mL and 8.01E+07 PFU/mL and 6.45E+07 PFU/mL and 7.26E+07 PFU/mL and 7.43E+07 PFU/mL and 8.33E+07 PFU/mL"}, {"measurement": "EC50", "setting": "coxsackievirus B5 (CVB5)", "value": "> 100", "unit": "µM"}, {"measurement": "Antiviral efficacy against CVB5", "setting": "coxsackievirus B5 (CVB5)", "value": "undetectable; also recorded: no antiviral activity was observed"}, {"measurement": "Number of cells infected with RVPs", "setting": "WNV RVPs", "value": "significantly reduced the number of infected cells"}, {"measurement": "Specific infectivity of released WNV particles", "setting": "West Nile virus (WNV) [4]", "value": "significant reduction in their infectivity"}, {"measurement": "Level of dihydroceramides (dhCers)", "setting": "Vero cells [5]", "value": "Significantly elevated levels"}, {"measurement": "Level of sphingomyelins (SMs)", "setting": "Vero cells [5]", "value": "slight reductions"}, {"measurement": "Level of dihydrosphingomyelins (dhSMs)", "setting": "Vero cells [5]", "value": "significant increase"}, {"measurement": "dhSM/SM ratio", "setting": "Vero cells [5]", "value": "significantly increased"}, {"measurement": "SI (CC50/EC50) WNV", "setting": "West Nile virus (WNV) [1]", "value": ">45.0"}, {"measurement": "CC50", "setting": "Vero cells [6]", "value": "> 100", "unit": "µM"}, {"measurement": "SI (CC50/EC50) WNV", "setting": "West Nile virus (WNV) [7]", "value": 39.8}, {"measurement": "SI (CC50/EC50) USUV", "setting": "Usutu virus (USUV) [8]", "value": ">125"}, {"measurement": "SI (CC50/EC50) ZIKV", "setting": "Zika virus (ZIKV) [9]", "value": ">14.9"}, {"measurement": "SI (CC50/EC50) DENV-2", "setting": "dengue virus (DENV-2) [10]", "value": ">13.9"}, {"measurement": "SI (CC50/EC50) VSV", "setting": "[11]", "value": ">4.0"}, {"measurement": "Effect on proliferation of Vero cells", "setting": "Vero cells [12]", "value": "only cytostatic effects on Vero cells at high concentrations"}, {"measurement": "CC50", "setting": "in vitro [2]", "value": "> 100", "unit": "µM"}, {"measurement": "CC50", "setting": "in vitro [13]", "value": 87.6, "unit": "µM"}, {"measurement": "EC50", "setting": "West Nile virus (WNV) [3]", "value": 2.2, "unit": "µM"}, {"measurement": "EC50", "setting": "West Nile virus (WNV) [14]", "value": 2.2, "unit": "µM"}, {"measurement": "EC50", "setting": "Usutu virus (USUV) [15]", "value": 0.8, "unit": "µM"}, {"measurement": "EC50", "setting": "Zika virus (ZIKV) [16]", "value": 6.7, "unit": "µM"}, {"measurement": "EC50", "setting": "dengue virus (DENV-2) [17]", "value": 7.2, "unit": "µM"}, {"measurement": "EC50", "setting": "[18]", "value": 25.3, "unit": "µM"}, {"measurement": "IC50", "setting": "[19]", "value": 1, "unit": "µM"}]}
{"smiles": "O=C(NCCCCCCCCCCCCNC(=O)c1ccc(O)c(O)c1O)c1ccc(O)c(O)c1O", "note": "[AL-274]", "values": [{"measurement": "Mean virus yield CVB5", "setting": "coxsackievirus B5 (CVB5)", "value": "9.25E+07 PFU/mL and 7.64E+07 PFU/mL and 8.20E+07 PFU/mL and 8.13E+07 PFU/mL and 8.84E+07 PFU/mL and 6.70E+07 PFU/mL and 7.30E+07 PFU/mL and 7.92E+07 PFU/mL"}, {"measurement": "EC50", "setting": "coxsackievirus B5 (CVB5)", "value": "> 100", "unit": "µM"}, {"measurement": "Antiviral efficacy against CVB5", "setting": "coxsackievirus B5 (CVB5)", "value": "undetectable; also recorded: no antiviral activity was observed"}, {"measurement": "Number of cells infected with RVPs", "setting": "WNV RVPs", "value": "significantly reduced the number of infected cells"}, {"measurement": "Specific infectivity of released WNV particles", "setting": "West Nile virus (WNV) [4]", "value": "significant reduction in their infectivity"}, {"measurement": "Level of dihydrosphingomyelins (dhSMs)", "setting": "Vero cells [5]", "value": "significant increase"}, {"measurement": "dhSM/SM ratio", "setting": "Vero cells [5]", "value": "significantly increased"}, {"measurement": "SI (CC50/EC50) WNV", "setting": "West Nile virus (WNV) [1]", "value": ">416"}, {"measurement": "CC50", "setting": "Vero cells [6]", "value": "> 100", "unit": "µM"}, {"measurement": "SI (CC50/EC50) WNV", "setting": "West Nile virus (WNV) [7]", "value": 20.5}, {"measurement": "SI (CC50/EC50) USUV", "setting": "Usutu virus (USUV) [8]", "value": ">76.9"}, {"measurement": "SI (CC50/EC50) ZIKV", "setting": "Zika virus (ZIKV) [9]", "value": ">47.6"}, {"measurement": "SI (CC50/EC50) DENV-2", "setting": "dengue virus (DENV-2) [10]", "value": ">10.8"}, {"measurement": "SI (CC50/EC50) VSV", "setting": "[11]", "value": ">2.3"}, {"measurement": "Effect on proliferation of Vero cells", "setting": "Vero cells [12]", "value": "only cytostatic effects on Vero cells at high concentrations"}, {"measurement": "CC50", "setting": "in vitro [2]", "value": "> 100", "unit": "µM"}, {"measurement": "CC50", "setting": "in vitro [13]", "value": 38.9, "unit": "µM"}, {"measurement": "EC50", "setting": "West Nile virus (WNV) [3]", "value": 0.24, "unit": "µM"}, {"measurement": "EC50", "setting": "West Nile virus (WNV) [14]", "value": 1.9, "unit": "µM"}, {"measurement": "EC50", "setting": "Usutu virus (USUV) [15]", "value": 1.3, "unit": "µM"}, {"measurement": "EC50", "setting": "Zika virus (ZIKV) [16]", "value": 2.1, "unit": "µM"}, {"measurement": "EC50", "setting": "dengue virus (DENV-2) [17]", "value": 9.2, "unit": "µM"}, {"measurement": "EC50", "setting": "[18]", "value": 43, "unit": "µM"}, {"measurement": "IC50", "setting": "[19]", "value": 7.8, "unit": "µM"}]}
{"smiles": "CCCCCCCCCCCCCC1=C([C@H](O)[C@@H](CO)NC(=O)CCCCCCC)C1", "note": "[GT-11, N-[(1R,2S)-2-hydroxy-1-hydroxymethyl-2-(2-tridecyl-1-cyclopropenyl)ethyl]octanamide, reference compound]", "values": [{"measurement": "WNV infection", "setting": "West Nile virus (WNV) [1]", "value": "inhibited WNV infection in a dose-dependent manner"}]}
{"smiles": "O=C(O)c1cc(O)c(O)c(O)c1", "note": "[Gallic acid, 3,4,5-trihydroxybenzoic acid, reference compound]", "values": [{"measurement": "WNV yield", "setting": "West Nile virus (WNV) [1]; Fig 1B", "value": "slight reduction in the WNV yield"}, {"measurement": "CC50", "setting": "in vitro [2]", "value": "> 100", "unit": "µM"}, {"measurement": "EC50", "setting": "West Nile virus (WNV) [3]", "value": "~100", "unit": "µM"}]}
{"smiles": "CCCCCCCCCCCCCCC[C@@H](O)[C@H](COP(=O)([O-])OCC[N+](C)(C)C)NC(=O)CCCCCCCCCCC", "note": "[dhSM, N-Lauroyl-D-erythro-sphinganylphosphorylcholine, reference compound]", "values": [{"measurement": "WNV infection", "setting": "West Nile virus (WNV) [1]", "value": "significantly reduced WNV infection in a dose-dependent manner"}, {"measurement": "Cell viability estimated by ATP measurements", "setting": "Vero cells [6]", "value": "without reducing cell viability"}]}
